# Measured values: US7371762B2, “3-substituted 6,7-dihydroxytetrahydroisoquinoline derivatives for use as antibacterial agents” (Arpida AG, priority 2001, dated 2008)
# What was measured:
# Assay in all cases: Minimal inhibitory concentration (MIC), NCCLS M7-A5 procedure
# Type in all cases: cell-based
# [1] = test system: Escherichia coli ATCC25922; conditions: read-out: Minimal inhibitory concentration (MIC) EC 25922
# Procedure: (§1) Minimal inhibitory concentrations (MIC) were determined in accordance with the National Committee for Clinical Laboratory Standards (NCCLS) procedure [M7-A5, 2001].
# (§2) The results obtained are summarized in table 1 and are expressed in jig/ml. In this table 1, EC 25922 means Escherichia coli ATCC25922, EC DC2 means Escherichia coli DC2, SA 25923 means Staphylococcus aureus ATCC25923 and SA 101 means Staphylococcus aureus 101. (ATCC=American Type Culture Collection)
# (§3) M7-A5* (2001): Methods for Dilution Antimicrobial Susceptibility Tests for Bacteria that Grow Aerobically; Approved Standard—Fifth Edition American National Standard.
# Escherichia coli DC2 = conditions: read-out: Minimal inhibitory concentration (MIC) EC DC2
# Procedure: as §1, §2, §3
# [2] = test system: Staphylococcus aureus 101; conditions: read-out: Minimal inhibitory concentration (MIC) SA 101
# Procedure: as §1, §2, §3
# [3] = test system: Staphylococcus aureus ATCC25923; conditions: read-out: Minimal inhibitory concentration (MIC) SA 25923
# Procedure: as §1, §2, §3
Structure (SMILES),MIC [1] [µg/mL],MIC (Escherichia coli DC2) [µg/mL],MIC [2] [µg/mL],MIC [3] [µg/mL]
"Oc1cc2c(cc1O)CC(c1ccc(-c3ccc(F)cc3F)cc1)NC2 (stereo not shown) [Example 21, 3-(2′,4′-Difluoro-biphenyl-4-yl)-1,2,3,4-tetrahydro-isoquinoline-6,7-diol]",32,8,8,8
"Oc1cc2c(cc1O)CC(c1ccc(Cl)cc1Cl)NC2 (stereo not shown) [Example 9, 3-(2,4-Dichloro-phenyl)-1,2,3,4-tetrahydro-isoquinoline-6,7-diol]",128,64,64,64
"OCC1Cc2cc(O)c(O)cc2CN1 (stereo not shown) [Example 6, 3-Hydroxymethyl-1,2,3,4-tetrahydro-isoquinoline-6,7-diol]",64,32,16,16
"COc1ccc(C2Cc3cc(O)c(O)cc3CN2)c2ccccc12 (stereo not shown) [Example 4, 3-(4-Methoxy-naphthalen-1-yl)-1,2,3,4-tetrahydro-isoquinoline-6,7-diol]",–,32,–,32
"Oc1cc2c(cc1O)CC(c1ccc(Oc3ccccc3)cc1)NC2 (stereo not shown) [Example 1, 3-(4-Phenoxy-phenyl)-1,2,3,4-tetrahydro-isoquinoline-6,7-diol]",32,8,8,8
"Oc1cc2c(cc1O)CN(Cc1ccccc1)C(COc1ccc(Cl)cc1Cl)C2 (stereo not shown) [Example 11, 2-Benzyl-3-(2,4-dichloro-phenoxymethyl)-1,2,3,4-tetrahydro-isoquinoline-6,7-diol]",> 128,> 128,8,8
"Oc1cc2c(cc1O)CC(c1ccc(Br)cc1)NC2 (stereo not shown) [Example 16, 3-(4-Bromo-phenyl)-1,2,3,4-tetrahydro-isoquinoline-6,7-diol]",> 128,32,64,8
"Oc1cc2c(cc1O)CC(COc1ccc(Cl)c(Cl)c1)NC2 (stereo not shown) [Example 13, 3-(3,4-Dichloro-phenoxymethyl)-1,2,3,4-tetrahydro-isoquinoline-6,7-diol]",> 128,16,16,16
"Oc1cc2c(cc1O)CN(Cc1ccccc1)C(c1ccc(Oc3ccccc3)cc1)C2 (stereo not shown) [Example 2, 2-Benzyl-3-(4-phenoxy-phenyl)-1,2,3,4-tetrahydro-isoquinoline-6,7-diol]",> 128,64,32,64
"Oc1ccc(-c2ccc(C3Cc4cc(O)c(O)cc4CN3)cc2)cc1 (stereo not shown) [Example 19, 3-(4′-Hydroxy-biphenyl-4-yl)-1,2,3,4-tetrahydro-isoquinoline-6,7-diol]",> 128,64,128,128
"N#Cc1cccc(-c2ccc(C3Cc4cc(O)c(O)cc4CN3)cc2)c1 (stereo not shown) [Example 22, 4′-(6,7-Dihydroxy-1,2,3,4-tetrahydro-isoquinolin-3-yl)-biphenyl-3-carbonitrile]",> 128,64,> 128,128
"Oc1cc2c(cc1O)CC(COc1ccc(Cl)cc1Cl)NC2 (stereo not shown) [Example 10, 3-(2,4-Dichloro-phenoxymethyl)-1,2,3,4-tetrahydro-isoquinoline-6,7-diol]",128,2,16,8
"Oc1cc2c(cc1O)CC(c1ccc3oc4ccccc4c3c1)NC2 (stereo not shown) [Example 7, 3-Dibenzofuran-2-yl-1,2,3,4-tetrahydro-isoquinoline-6,7-diol]",64,32,16,8
"Oc1cc2c(cc1O)CC(COc1cc(Cl)ccc1Cl)NC2 (stereo not shown) [Example 14, 3-(2,5-Dichloro-phenoxymethyl)-1,2,3,4-tetrahydro-isoquinoline-6,7-diol]",128,32,64,64
"Oc1cc2c(cc1O)CC(c1ccc(-c3ccccc3O)cc1)NC2 (stereo not shown) [Example 20, 3-(2′-Hydroxy-biphenyl-4-yl)-1,2,3,4-tetrahydro-isoquinoline-6,7-diol]",128,32,32,16
"Oc1cc2c(cc1O)CC(c1ccc(Cl)cc1)NC2 (stereo not shown) [Example 15, 3-(4-Chloro-phenyl)-1,2,3,4-tetrahydro-isoquinoline-6,7-diol]",128,32,32,16
"CC1NC(c2ccc(Oc3ccccc3)cc2)Cc2cc(O)c(O)cc21 (stereo not shown) [Example 3, 1-Methyl-3-(4-phenoxy-phenyl)-1,2,3,4-tetrahydro-isoquinoline-6,7-diol]",–,32,–,16
"Oc1cc2c(cc1O)CC(c1ccc(-c3ccc(C(F)(F)F)cc3)cc1)NC2 (stereo not shown) [Example 17, 3-(4′-Trifluoromethyl-biphenyl-4-yl)-1,2,3,4-tetrahydro-isoquinoline-6,7-diol]",64,8,8,4
"Oc1cc2c(cc1O)CC(c1ccc(-c3ccccc3)cc1)NC2 (stereo not shown) [Example 12, 3-Biphenyl-4-yl-1,2,3,4-tetrahydro-isoquinoline-6,7-diol]",16,8,16,4
"Oc1cc2c(cc1O)CC(c1ccc(O)c3ccccc13)NC2 (stereo not shown) [Example 5, 3-(4-Hydroxy-naphthalen-1-yl)-1,2,3,4-tetrahydro-isoquinoline-6,7-diol]",–,16,–,32
"Oc1cc2c(cc1O)CC(c1ccc(Sc3ccccc3)cc1)NC2 (stereo not shown) [Example 8, 3-(4-Phenylsulfanyl-phenyl)-1,2,3,4-tetrahydro-isoquinoline-6,7-diol]",64,32,32,8
"CN(C)c1ccc(-c2ccc(C3Cc4cc(O)c(O)cc4CN3)cc2)cc1 (stereo not shown) [Example 18, 3-(4′-Dimethylamino-biphenyl-4-yl)-1,2,3,4-tetrahydro-isoquinoline-6,7-diol]",> 128,8,16,4
